The values below come from patent publication US20060003364A1, “GLUT1 transporters expressed in cancer cells” (XenoPort, Inc., priority 2004, published 2006).

The first assay concerns the target T1, GLUT1 (Homo sapiens, UniProt P11166).
T1 sequence (P11166 1-492): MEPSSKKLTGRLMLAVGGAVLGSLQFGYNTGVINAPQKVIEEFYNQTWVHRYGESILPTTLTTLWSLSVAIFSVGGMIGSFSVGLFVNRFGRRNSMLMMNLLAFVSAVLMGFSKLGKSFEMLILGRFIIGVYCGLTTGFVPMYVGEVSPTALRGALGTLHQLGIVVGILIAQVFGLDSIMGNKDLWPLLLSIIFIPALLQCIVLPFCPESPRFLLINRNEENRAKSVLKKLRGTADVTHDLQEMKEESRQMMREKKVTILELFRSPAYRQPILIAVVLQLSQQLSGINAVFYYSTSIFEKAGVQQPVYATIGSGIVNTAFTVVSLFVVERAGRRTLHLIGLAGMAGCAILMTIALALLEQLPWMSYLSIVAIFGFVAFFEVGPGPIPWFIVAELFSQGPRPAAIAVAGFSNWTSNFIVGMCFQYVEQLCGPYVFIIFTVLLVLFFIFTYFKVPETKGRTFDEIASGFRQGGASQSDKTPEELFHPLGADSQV
Put plainly: Radiolabel glucose uptake in Xenopus oocytes expressing GLUT1. Format: cell-based. On the set-up: expressed in transfected cells; host or cells: Xenopus oocytes (cRNA injected). To be noted: oocytes expressing GLUT1 vs noninjected controls; 3 minutes, ND96 buffer. As for the experimental part:
To assess transport function of a specific transporter protein, it can be desirable to clone the cDNA and express the protein in cells that have low endogenous transport activity. Human GLUT1 was cloned by PCR, fully sequenced, and subcloned into plasmids that can be used for expression in mammalian cells or Xenopus oocytes. […] For expression in Xenopus oocytes, in vitro GLUT1 cRNA was prepared and injected into defoliculated oocytes.
Oocytes expressing GLUT1 or control oocytes not expressing GLUT1 were incubated in an oocyte ringers (ND96) buffer ([…], 10 mM HemiNa HEPES, 2 mM KCl, 1 mM MgCl, 1.8 mM CaCl2) containing 0.5% bovine serum albumin and 3H-glucose (10^6 CPM/ml) for 3 minutes. Oocytes were washed and uptake of radiolabel quantified by scintillation counting.
For the molecule `O=C[C@H](O)[C@@H](O)[C@H](O)[C@H](O)CO` [^3H-glucose], the 3H-glucose uptake result is given as “higher levels of ^3H-glucose uptake than noninjected controls”.

A further assay has as its target T1, GLUT1.
Test: not given
The note with it: cited from earlier work.
For `O=C1O[C@H]([C@@H](O)CO)C(=O)C1=O` [Dehydroascorbic Acid], the “Reported Affinity for GLUT1” value was 0.8 mM. `O=C[C@H](O)[C@@H](O)[C@@H](O)[C@H](O)CO` [Galactose]: the “Reported Affinity for GLUT1” value was 4 mM. Take `N[C@H]1C(O)O[C@H](CO)[C@@H](O)[C@@H]1O` (stereo partly drawn) [Glucosamine]: the “Reported Affinity for GLUT1” value is 9 mM.

Turning to “(S)-methoxy-a-methyl-2-napthalene acetic acid amido galacto pyranose”, the “Reported Affinity for GLUT1” value is reported as 1 mM.

In the case of Fluorodeoxyglucose, the “Reported Affinity for GLUT1” value is 4 mM.
